What all share (assay): inhibition of tumour cell growth, NCI panel, 48 h
The test system of assay [1] is MDA-N.
Assay [2] has as its system SNB-75.
The test system of assay [3] is SW-620.
For assay [4], the system named is ACHN.
Assay [5] deals with M14.
The test system of assay [6] is A549.
Assay [7] concerns NCI-H226.
Assay [8] relates to MDA-MB-435.
The subject of assay [9] is HL-60.
Assay [10] concerns SNB-19.
In assay [11] the test system is HCC 2998.
Assay [12] has as its system RPMI-8226.
For assay [13], the system named is HCT-116.
In assay [14] the test system is A498.
The subject of assay [15] is SK-MEL-28.
In assay [16] the test system is COLO 205.
Assay [17] has as its system SF-539.
The subject of assay [18] is SF-295.
For assay [19], the system named is RXF 393.
The subject of assay [20] is KM-20L2.

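Method: 48-hour compound exposure of cells in 96-well plates, five concentrations, linear interpolation of endpoints. Here, GI50 denotes the concentration required for 50% inhibition of growth.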 Calls of active or inactive are those of the source. No stated cut-off is given here; in the data, active = GI50 up to about 1.1 µM and inactive = higher.

As for `CCc1ccccc1/N=N/C(=O)NNc1ccccc1CC`, the GI50 is 18.3 µM (inactive) in assay [1]; 19.4 µM (inactive) in assay [2]; 17.1 µM (inactive) in assay [3]; 19.8 µM (inactive) in assay [4]; 16.9 µM (inactive) in [5]; 14.9 µM (inactive) in assay [6]. The GI50 in assay [7] was 17.5 µM (inactive); in [8], 24.4 µM (inactive); in assay [9] it was 23.2 µM (inactive); in [10], 25.8 µM (inactive); in assay [11], 15.7 µM (inactive); in [12] it was 22.2 µM (inactive). In addition, the GI50 in assay [13] is 15.3 µM (inactive); in assay [14], 18.7 µM (inactive); in assay [15] it was 17.7 µM (inactive).

`COc1cc2nc(-c3cccs3)nc(N3CCN(c4ccccc4)CC3)c2cc1OC`: the GI50 in assay [16], in assay [2], in assay [3], in [4], in assay [5] and in assay [6] was > 100 µM (inactive) in each case. Also, the GI50 is > 100 µM (inactive) in [7]; > 100 µM (inactive) in [8]; > 100 µM (inactive) in [9]; 68.1 µM (inactive) in assay [10]; > 100 µM (inactive) in [12]; > 100 µM (inactive) in assay [13]. For the same molecule, the GI50 in [14], in assay [15], in [17] and in [18] was > 100 µM (inactive) each time.

Consider `NN`, for which the GI50 was 328 µM (inactive) in [16]; 150 µM (inactive) in assay [1]; 851 µM (inactive) in assay [2]; 235 µM (inactive) in [3]; 593 µM (inactive) in assay [4]; 453 µM (inactive) in assay [19]. Further, the GI50 is 468 µM (inactive) in assay [5]; 145 µM (inactive) in assay [6]; 481 µM (inactive) in assay [7]; 231 µM (inactive) in assay [20]; 210 µM (inactive) in assay [8]; 205 µM (inactive) in [9]. Moreover, the GI50 in assay [10] was 887 µM (inactive); in assay [11], 1040 µM (inactive); in [12], 303 µM (inactive); in [13] it was 192 µM (inactive); in [14], 317 µM (inactive); in [15], 585 µM (inactive). Besides, the GI50 was 582 µM (inactive) in assay [17] and 574 µM (inactive) in [18].

As for `c1ccc2sc(SCN(C3CCCCC3)C3CCCCC3)nc2c1`, the GI50 in [3], in assay [4], in [19], in assay [5], in assay [6] and in [7] was > 100 µM (inactive) each time. In addition, the GI50 in [8], in [10], in assay [11], in [14], in [15] and in [18] was > 100 µM (inactive) in each case.

On to `CC(C)=CC1C(C(=O)O)C1(C)C` (configuration not stated) [CHRYSANTHEMIC ACID], for which the GI50 was > 750 µM (inactive) in [16]; > 750 µM (inactive) in [2]; > 750 µM (inactive) in assay [3]; > 750 µM (inactive) in assay [19]; > 750 µM (inactive) in assay [6]; 75 µM (inactive) in assay [7]. Also, the GI50 in [20], in [9], in assay [10], in assay [11], in assay [12] and in assay [13] was > 750 µM (inactive) in each case. The GI50 in assay [14] was 24 µM (inactive); in [15], > 750 µM (inactive); in [17], > 750 µM (inactive); in [18], > 750 µM (inactive).

In the case of `O=C(O)c1ccccc1.[Ag]`, the GI50 in assay [16] is 1.87 µM (inactive); in [1] it was 7.91 µM (inactive); in assay [2], 3.36 µM (inactive); in [4] it was 6.47 µM (inactive); in assay [19] it was 18.2 µM (inactive); in [5], 19.5 µM (inactive). Besides, the GI50 in assay [6] was 6.81 µM (inactive); in assay [7], > 100 µM (inactive); in [8] it was 16.8 µM (inactive); in assay [9] it was 3.98 µM (inactive); in assay [10], 39.4 µM (inactive); in assay [11] it was 19.2 µM (inactive). Also, the GI50 in assay [12] was 2.23 µM (inactive); in assay [13] it was 6.32 µM (inactive); in [14], 19.2 µM (inactive); in assay [15], 16.9 µM (inactive); in assay [17], 21.3 µM (inactive); in assay [18], 64 µM (inactive).

In the case of `CCOC(=O)Cn1c(=O)ccn(COCCO)c1=O`, the GI50 in assay [16], in assay [1], in assay [2], in [3], in [4] and in assay [19] was > 100 µM (inactive) throughout. For the same molecule, the GI50 in assay [5], in [6], in assay [8], in assay [9], in assay [10] and in assay [11] was > 100 µM (inactive) each time. Besides, the GI50 in [12], in assay [14], in assay [15] and in assay [17] was > 100 µM (inactive) throughout.

Turning to `Brc1ccc2[nH]c3c(C4=NCCC4)nccc3c2c1`, the GI50 in assay [16] is 23.3 µM (inactive); in [2], 31.3 µM (inactive); in assay [3], 21.3 µM (inactive); in assay [19], 16.3 µM (inactive); in [6], 16.3 µM (inactive); in [7], 10.2 µM (inactive). Besides, the GI50 in [20] was 8.17 µM (inactive); in [9], 5.79 µM (inactive); in [10] it was 21.7 µM (inactive); in [11] it was 12.2 µM (inactive); in assay [12], 9.27 µM (inactive); in assay [13], 9.86 µM (inactive). For the same molecule, the GI50 in assay [15] is 16.4 µM (inactive); in assay [17], 9.53 µM (inactive); in [18] it was 10.6 µM (inactive).

Consider `O=[N+]([O-])c1ccc(-c2ccc([C@H]3CC(c4cc(F)c(Cl)cc4Cl)=NN3)o2)cc1`, for which the GI50 in [1] was 36.1 µM (inactive); in assay [2], 15.1 µM (inactive); in [3], 23.6 µM (inactive); in [4] it was 32.1 µM (inactive); in assay [19] it was 39.2 µM (inactive); in [5], 13.3 µM (inactive). The GI50 is 21.9 µM (inactive) in assay [7]; 26.7 µM (inactive) in assay [8]; 1.06 µM (active) in assay [9]; > 100 µM (inactive) in assay [10]; 14.3 µM (inactive) in assay [11]; 20.9 µM (inactive) in assay [12]. Also, the GI50 in [13] is 29.6 µM (inactive); in assay [14] it was 35.5 µM (inactive); in [17] it was 5.38 µM (inactive); in assay [18], 44.2 µM (inactive).

As to `CO/N=C1\CC(NC(=O)C(F)(F)F)c2ccsc21` (configuration not stated), the GI50 in assay [16], in assay [1], in [2], in [3], in [19] and in [5] was > 100 µM (inactive) each time. Further, the GI50 in assay [6], in assay [7], in assay [8], in assay [9], in assay [11] and in assay [13] was > 100 µM (inactive) throughout. Moreover, the GI50 in assay [14], in assay [15], in assay [17] and in assay [18] was > 100 µM (inactive) in each case.

On to `CNC(=O)OCc1c(CO)nc(SC)n1C`, for which the GI50 in [16], in assay [2], in assay [3], in [19], in assay [6] and in assay [7] was > 100 µM (inactive) each time. The GI50 in assay [20], in [9], in assay [10], in [11], in assay [12] and in [13] was > 100 µM (inactive) each time. Also, the GI50 in assay [14], in assay [15], in [17] and in assay [18] was > 100 µM (inactive) each time.

For `O=[N+]([O-])c1ccc(NC2OCC(O)C(O)C2O)cc1` (configuration not stated), the GI50 in [16] is > 100 µM (inactive); in [2], > 100 µM (inactive); in assay [3] it was > 100 µM (inactive); in [4], > 100 µM (inactive); in assay [19], 43 µM (inactive); in [5], > 100 µM (inactive). Moreover, the GI50 in assay [6], in [7], in [20], in assay [10], in assay [11] and in assay [12] was > 100 µM (inactive) each time. For the same molecule, the GI50 in assay [14], in [15], in assay [17] and in assay [18] was > 100 µM (inactive) each time.
